Assay results reported in patent publication US11613535B2, “Compounds for MYC inhibition” (THE SCRIPPS RESEARCH INSTITUTE, priority 2018, dated 2023).
In brackets after ≈: the same amount, converted by molar mass.

Experiments:
MYC = target: T1, MYC (Homo sapiens, UniProt P01106); assay: MYC affinity assessment by Bio-FET concentration curve; format: binding; conditions: concentration for ½ Rmax, averaged across three chips
T1 construct: A His-tagged bHLH construct was immobilized on a chip for site-specific functionalization; made in house; host or cells: BL21 E. coli
T1 sequence (P01106 369-421 limits assumed): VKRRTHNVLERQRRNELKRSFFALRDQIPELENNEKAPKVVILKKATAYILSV
Experimental: (§1) A 10 mg/kg i.v. PK study was conducted in mouse to determine if these favored properties translated into improved PK. Non-compartmental analysis of the mouse PK followed by allometric scaling to the rat afforded a comparison to the rat PK study conducted previously on 5a and is shown in Table 2.
(§2) FET functionalization and regeneration. FET experiments were conducted on an Agile R100 (Nanomedical Diagnostics) at ambient temperature. Chips were functionalized with Ni-NTA according to manufacturer protocols. Surface-bound Ni-NTA sites were then bound to His-tagged protein by 15 min incubation with ˜100 nM protein in 50 mM MES (pH 6.0). Ni-NTA functionalized chips were regenerated via treatment with 250 mM imidazole for 30 mins, followed by extensive washing in MES, then reintroduction of His-tagged protein.
MYC affinity assessment. […] Varying concentrations of 5g were allowed to equilibrate with MYC, and the Req values plotted against the concentration. […] This was repeated across three chips and the affinity averaged across those three runs.

[1] = tested on: CEF transfected with ATG-MYC; assay: CEF focus assay (microtumor formation); format: cell-based, chicken; conditions: Measured in CEF transfected with ATG-MYC
Text: The lead exemplified compound in the prior patent application is termed KJ-Pyr-9 herein. […] CEF assay.

[2] = PK analysis of 5g, 10 mg/kg i.v.; format: in vivo, C57BL/6 mice
Experimental: as §1
PK analysis. Pharmacokinetic analysis of 5g was conducted by Explora Biolabs. 12 C57BL/6 (6 male, 6 female) mice were administered 5g at 10 mg/kg by IV injection. Blood samples were collected at 2 min and 0.08, 0.25, 0.5, 1, 2, 8 and 24 hours post-injection. Bioanalysis was conducted by Integrated Analytical Solutions by processing through a Shimadzu VP series 10 system LC followed by mass analysis on an Applied Biosystems/MDS SCIEX API 3000 triple quadrupole mass spectrometer. All procedures involving the care and use of animals was approved by the IACUC at Explora BioLabs.

His-tagged MYC = target: T2, His-tagged MYC (Homo sapiens, UniProt P01106); assay: Bio-FET relative binding studies; conditions: Relative to 5a Req; compounds at 10 μM in MES (pH 6.0) with 3% DMSO
T2 construct: A His-tagged bHLH construct was immobilized on a chip for site-specific functionalization; made in house; host or cells: BL21 E. coli
T2 sequence (P01106 369-421 limits assumed): as above
Experimental: (§3) Compound solubilities were measured by dynamic light scattering (Table 1). […] 2. Detection was conducted on a graphene surface. 3. A His-tagged bHLH construct was immobilized on a chip for site-specific functionalization. […] Compounds were also screened against a monomeric form of MAX (mMAX), as well as MYC-MAX and MAX-MAX dimers.
Protein expression and purification. His-tagged MYC, mMAX, MYC-MAX, and MAX-MAX constructs were expressed in BL21 E. coli cells and purified as previously described.^10
as §2, with “Surface-bound Ni-NTA sites were then bound to His-tagged protein by 15 min incubation with ˜100 nM protein in 50 mM MES (pH 6.0).” left out
Relative binding studies. Test compounds were dissolved to desired concentration in MES (pH 6.0) buffer with 3% DMSO. Protein-bound chips were initialized and rinsed in MES buffer with 3% DMSO. For relative binding studies, 6-8 test compounds (including 5a) were analyzed at 10 μM in a single run, and the Req determined and compared to that of 5a. Compounds were tested a minimum of three times across different chips.

[3] = Solubility analysis by dynamic light scattering; format: physicochemical
Experimental: as §3
Solubility analysis. Compounds were analyzed for solubility by dynamic light scattering on a DynaPro NanoStar detector (Wyatt Technology). Compounds were dissolved in MES (pH 6.0) from a 1000×DMSO stock at varying concentrations. Samples were analyzed for aggregation and the maximal concentration at which aggregates were not observed was used as the measure of solubility.

Kd (MYC) [µM]	IC50 ([1]; Gallus gallus) [µM]	improvement in exposure (AUC) ([2]; 5g versus 5a) [fold]	mean residence time ([2]; 5g, 10 mg/kg i.v. mouse PK, comparison) [h]	AUC ([2]; 5g, 10 mg/kg i.v., C57Bl6 mice)	CI ([2]; 5g, 10 mg/kg i.v., C57Bl6 mice) [mL/min/kg]	Half-life ([2]; 5g, 10 mg/kg i.v., C57Bl6 mice) [h]	Vss ([2]; 5g, 10 mg/kg i.v., C57Bl6 mice) [L]	MRT ([2]; both sexes, C57BL/6, mouse, blood, iv, 5g, 10 mg/kg i.v., C57Bl6 mice) [h]	FET Req (His-tagged MYC) [%]	Solubility ([3]; Measured by DLS in MES (pH 6.0) with <0.1% DMSO) [µM]	IC50 [1] [µM]	Solubility ([3]; pH 6) [µM]	SMILES
0.0125 ± 0.0041	5	30	4.8	44,000 ng*h/mL	3.8	4.8	0.97	4.3	97	125 (≈ 52.9 µg/mL)	–	–	NC(=O)c1ccc(-c2cc(-c3ccc(-c4nccs4)cc3)nc(-c3ccco3)c2)cc1 [Compound 5g]
–	–	–	–	–	–	–	–	–	0	–	10	32 (≈ 9.58 µg/mL)	N#Cc1ccc(-c2cc(-c3ccc(C(N)=O)cc3)ccn2)cc1 [Compound 7a]
–	–	–	–	–	–	–	–	–	0	–	–	10 (≈ 2.46 µg/mL)	N#Cc1ccc(-c2cccc(-c3ccco3)n2)cc1 [Compound 7b]
